{
  "source": "paper PMC10881971",
  "about": "“Hepa-ToxMOA: a pathway-screening method for evaluating cellular stress and hepatic metabolic-dependent toxicity of natural products” (Scientific Reports, 2024)",
  "key": {"[1]": {"system": "AP1, P53, Nrf2, and NF-κB", "settings": "for Toxic (natural products exceeding Score 3, Venn diagram list Fig. 3c): human"}, "[2]": {"system": "diabetic C57BL/KsJ-db/db mice", "parameters": "method as in PMID 29554661", "settings": "cited from earlier work"}, "[3]": {"system": "CYP3A4", "settings": "cited from earlier work"}, "[4]": {"system": "CYP3A5", "parameters": "method as in doi:10.1016/j.ccr.2020.213600", "settings": "cited from earlier work"}, "[5]": {"system": "CYP3A", "parameters": "method as in PMID 30778299", "settings": "cited from earlier work"}, "[6]": {"system": "AP1", "settings": "AP1 cell line, CPPA 6.25, 12.5, 25 μM, 24 h, S9 fraction (Fig. 2b)"}, "[7]": {"system": "P53"}, "[8]": {"system": "Nrf2"}, "[9]": {"system": "NF-κB", "settings": "NF-κB cell line, CPPA 6.25, 12.5, 25 μM, 24 h, S9 fraction (Fig. 2b)"}, "[10]": {"system": "Hepa-ToxMOA cell lines (HepG2)", "settings": "four Hepa-ToxMOA cell lines, increasing CPPA concentration (6.25, 12.5, 25 μM), 1% S9 treatment, 24 h"}, "[11]": {"system": "diabetic mice", "parameters": "method as in PMID 34678724", "settings": "cited from earlier work"}, "[12]": {"system": "liver fibrosis", "parameters": "method as in PMID 30502394", "settings": "cited from earlier work"}, "[13]": {"system": "CYP2C19", "parameters": "method as in PMID 25815638", "settings": "causing mitochondrial dysfunction and hepatotoxicity; cited from earlier work"}, "[14]": {"system": "CYP3A4", "parameters": "method as in PMID 20959500", "settings": "via the activation of NR1I2; cited from earlier work"}},
  "data": [
    {"smiles": "CC(C)=CC[C@H](O)C1=CC(=O)c2c(O)ccc(O)c2C1=O", "note": "[Alkannin]", "values": [
      {"measurement": "sum of activity scores compared between metabolic activation and non-metabolic conditions", "setting": "[1]", "value": "more active without metabolic activation"},
      {"measurement": "toxicity in Hepa-ToxMOA cell lines under metabolic activity conditions", "setting": "[1]", "value": "reduced toxicity"},
      {"measurement": "Toxic (natural products exceeding Score 3, Venn diagram list Fig. 3c)", "setting": "[1]", "value": "S9- only"},
      {"measurement": "effect on liver injury", "setting": "[2]", "value": "hepatoprotective effects"}
    ]},
    {"smiles": "CC(=O)O[C@H]1C[C@]2(O)[C@@H]3CC[C@@H]4C[C@@H](O)CC[C@]4(C)[C@H]3CC[C@]2(C)[C@H]1c1ccc(=O)oc1", "note": "[Bufotalin]", "values": [
      {"measurement": "active (increased GFP intensity) for all Hepa-ToxMOA cell lines (Fig. 3d)", "setting": "[1]", "value": "commonly active"},
      {"measurement": "sum of activity scores compared between metabolic activation and non-metabolic conditions", "setting": "[1]", "value": "more active without metabolic activation"},
      {"measurement": "Toxic (natural products exceeding Score 3, Venn diagram list Fig. 3c)", "setting": "[1]", "value": "S9- only"},
      {"measurement": "substrate of CYP3A4", "setting": "[3]", "value": "substrates"},
      {"measurement": "substrate of CYP3A5", "setting": "[4]", "value": "substrates"},
      {"measurement": "metabolism by CYP3A", "setting": "[5]", "value": "metabolized by CYP3A to 5ß-hydroxy-bufotalin"}
    ]},
    {"smiles": "O=P1(N(CCCl)CCCl)NCCCO1", "note": "(stereo not drawn) [CPPA, cyclophosphamide, reference compound]", "values": [
      {"measurement": "GFP intensity", "setting": "[6]", "value": "increased in a dose-dependent manner"},
      {"measurement": "GFP intensity", "setting": "[7]", "value": "tendency to increase, although not in a dose-dependent manner"},
      {"measurement": "GFP intensity", "setting": "[8]", "value": "increased in a dose-dependent manner"},
      {"measurement": "GFP intensity", "setting": "[9]", "value": "increased in a dose-dependent manner"},
      {"measurement": "GFP intensity with S9 fractions compared to without S9 fractions", "setting": "[1]", "value": "higher"},
      {"measurement": "cell viability", "setting": "[10]", "value": "significantly reduced"}
    ]},
    {"smiles": "CC(C)=CCc1c(O)cc2oc3cc(O)c(O)c(CC=C(C)C)c3c(=O)c2c1O", "note": "[Gamma-mangostin]", "values": [
      {"measurement": "fasting blood glucose levels", "setting": "[11]", "value": "attenuate fasting blood glucose levels"},
      {"measurement": "effect on liver fibrosis", "setting": "[12]", "value": "alleviate liver fibrosis"}
    ]},
    {"smiles": "O=C(O)c1cc(O)c2c(c1)C(=O)c1cccc(O)c1C2=O", "note": "[Rhein]", "values": [
      {"measurement": "metabolic activation by CYP2C19", "setting": "[13]", "value": "metabolically activated by CYP2C19"}
    ]},
    {"smiles": "CC[C@]1(O)C[C@@H]2CN(CCc3c([nH]c4ccccc34)[C@@](C(=O)OC)(c3cc4c(cc3OC)N(C)[C@H]3[C@@](O)(C(=O)OC)[C@H](OC(C)=O)[C@]5(CC)C=CCN6CC[C@]43[C@@H]65)C2)C1", "note": "[vinblastine, reference compound]", "values": [
      {"measurement": "induction of CYP3A4", "setting": "[14]", "value": "induce CYP3A4"},
      {"measurement": "substrate of CYP3A4", "setting": "[3]", "value": "substrate"}
    ]}
  ]
}
